# Test results reported in patent US10376520B2, “Methods for the treatment of cardiovascular disorders” (Galapagos NV, priority 2015, dated 2019).
# How the values were obtained:
# [1] = tested on: Japanese and Caucasian healthy subjects; assay: LDL determination, Study 3 (healthy volunteers); type: in vivo, human; settings: for [LDL] % Mean % variation vs baseline 10 days: 200 mg q.d.; for [LDL] levels: Study 3
# Experimental: Randomized, double-blind, placebo-controlled study for the assessment of safety, tolerability, pharmacokinetics, and pharmacodynamics, of multiple oral doses of Compound 1 (dosed as a [Compound 1:HCl:3H2O]) in Japanese and Caucasian healthy subjects.
# Randomized, double-blind, placebo-controlled, single center, sequential design study.
# Compound 1 (dosed as a [Compound 1:HCl:3H2O]) is administered for 10 days as oral film-coated tablet (25 and 100 mg and matching placebos). Placebo are provided as a matching tablet.
# The study drug is ingested with 240 mL water after a standardized breakfast on Days 2-9. On PK days (Day 1 and Day 10) the study drug is administered in a fasted state (subjects will receive lunch 4 h after dosing on Day 1 and Day 10).
# 10 Japanese subjects (6 active, 4 placebo) and 10 Caucasian subjects (6 active, 4 placebo) will receive once daily an oral dose of 200 mg Compound 1 (dosed as a [Compound 1:HCl:3H2O]) or matching placebo as two tablets of 100 mg or matching placebo for 10 days. For practical reasons, these subjects may be split over separate groups, each group consisting of an equal number of Japanese and Caucasian Compound 1 (dosed as a [Compound 1:HCl:3H2O]) treated subjects and Japanese and Caucasian placebo subjects.
# The determination of [LDL]-cholesterol is made using an automated method taking advantage of the selective micellary solubilization of [LDL]-cholesterol by a nonionic detergent and the interaction of a sugar compound and lipoproteins (VLDL and chylomicrons).
# When a detergent is included in the enzymatic method for cholesterol determination (cholesterol esterase, cholesterol oxidase coupling reaction), the relative reactivities of cholesterol in the lipoprotein fractions increase in this order: [HDL]<chylomicrons <VLDL <[LDL]. In the presence of Mg^2+, a sugar compound markedly reduces the enzymatic reaction of the cholesterol measurement in VLDL and chylomicrons. The combination of a sugar compound with detergent enables the selective determination of [LDL]-cholesterol in serum. (Friedewald et al., 1972; Rifai et al., 1992)
# Homogeneous enzymatic colorimetric assay.
# In the presence of peroxidase, the hydrogen peroxide generated reacts with 4-aminoantipyrine and Sodium N-(2-hydroxy-3-sulfopropyl)-3,5-dimethoxyaniline (HSDA) to form a purple-blue dye.
# The color intensity of this dye is directly proportional to the cholesterol concentration and is measured photometrically.
# Human serum and plasma samples [LDL] determination was done on a Roche/Hitachi Cobas c 701/702 system which automatically calculate the analyte concentration of each sample. Samples containing precipitates are centrifuged before performing the assay.
# RA patients = assay: [HDL] determination, Study 4 (RA patients, 4 weeks, add-on to MTX); type: in vivo, human
# Description: Randomized, double-blind, placebo-controlled, multicenter, phase II study of Compound 1 (dosed as a [Compound 1:HCl:3H2O]) to compare four dose regimens versus placebo, in combination with methotrexate, administered for 4 weeks in the treatment of subjects with active rheumatoid arthritis who have an inadequate response to methotrexate alone.
# Randomized double-blind, placebo-controlled add on study in subjects with active RA who have an inadequate response to MTX monotherapy, in combination with methotrexate, administered for 4 weeks in the treatment of subjects with active rheumatoid arthritis who have an inadequate response to methotrexate alone.
# 90 subjects randomized to one of 4 dose regimens of Compound 1 (dosed as a [Compound 1:HCl:3H2O]) or placebo, on top of their stable dose of MTX. Thus, each of the 4 different doses of Compound 1 (dosed as a [Compound 1:HCl:3H2O]) and placebo groups has 18 subjects.
# Compound 1 (dosed as a [Compound 1:HCl:3H2O]) capsules administered orally in 30 mg, 75 mg, 150 mg, or 300 mg doses per day for 4 weeks.
# This assay relies on a homogeneous enzymatic colorimetric test. In the presence of magnesium ions, dextran sulfate selectively forms water-soluble complexes with LDL, VLDL and chylomicrons which are resistant to PEG-modified enzymes.
# The cholesterol concentration of [HDL]-cholesterol is determined enzymatically by cholesterol esterase and cholesterol oxidase coupled with PEG to the amino groups (approx. 40%).
# In the presence of peroxidase, the hydrogen peroxide generated reacts with 4-amino-antipyrine and Sodium N-(2-hydroxy-3-sulfopropyl)-3,5-dimethoxyaniline (HSDA) to form a purple-blue dye. The color intensity of this dye is directly proportional to the cholesterol concentration and is measured photometrically.
# Human serum and plasma samples [HDL] determination was done on a Roche/Hitachi Cobas c 701/702 system which automatically calculate the analyte concentration of each sample. Samples containing precipitates are centrifuged before performing the assay.
smiles,measurement,setting,value
"O=C(Nc1nc2cccc(-c3ccc(CN4CCS(=O)(=O)CC4)cc3)n2n1)C1CC1 [Compound 1, cyclopropanecarboxylic acid {5-[4-(1,1-dioxo-thiomorpholin-4-ylmethyl)-phenyl]-[1,2,4]triazolo[1,5-a]pyridin-2yl}-amide]",[LDL] % Mean % variation vs baseline 10 days,[1]; Caucasian,−1.3%
same,[LDL] % Mean % variation vs baseline 10 days,[1]; Japanese,−8.9%
same,[LDL] levels,"[1]; Caucasian 200 mg q.d. for 10 days, day 17",2.5 mmol/L
same,[LDL] levels,"[1]; Caucasian 200 mg q.d., day 0",2.6 mmol/L
same,[LDL] levels,"[1]; Caucasian 200 mg q.d., day 5",2.6 mmol/L
same,[LDL] levels,"[1]; Caucasian 200 mg q.d., day 10",2.4 mmol/L
same,[LDL] levels,"[1]; Japanese 200 mg q.d. for 10 days, day 17",2.7 mmol/L
same,[LDL] levels,"[1]; Japanese 200 mg q.d., day 0",2.7 mmol/L
same,[LDL] levels,"[1]; Japanese 200 mg q.d., day 5",2.5 mmol/L
same,[LDL] levels,"[1]; Japanese 200 mg q.d., day 10",2.5 mmol/L
same,[HDL] levels,"RA patients; 30 mg q.d., Baseline",1.40 mmol/L
same,[HDL] levels,"RA patients; 30 mg q.d., week 1",1.44 mmol/L
same,[HDL] levels,"RA patients; 30 mg q.d., week 2",1.43 mmol/L
same,[HDL] levels,"RA patients; 30 mg q.d., week 3",1.38 mmol/L
same,[HDL] levels,"RA patients; 30 mg q.d., week 4",1.43 mmol/L
same,[HDL] % Mean % variation vs baseline after 4 weeks,RA patients; 30 mg qd,4%
same,[HDL] levels,"RA patients; 75 mg q.d., Baseline",1.46 mmol/L
same,[HDL] levels,"RA patients; 75 mg q.d., week 1",1.46 mmol/L
same,[HDL] levels,"RA patients; 75 mg q.d., week 2",1.50 mmol/L
same,[HDL] levels,"RA patients; 75 mg q.d., week 3",1.56 mmol/L
same,[HDL] levels,"RA patients; 75 mg q.d., week 4",1.57 mmol/L
same,[HDL] % Mean % variation vs baseline after 4 weeks,RA patients; 75 mg qd,11%
same,[HDL] levels,"RA patients; 150 mg q.d., Baseline",1.46 mmol/L
same,[HDL] levels,"RA patients; 150 mg q.d., week 1",1.45 mmol/L
same,[HDL] levels,"RA patients; 150 mg q.d., week 2",1.47 mmol/L
same,[HDL] levels,"RA patients; 150 mg q.d., week 3",1.55 mmol/L
same,[HDL] levels,"RA patients; 150 mg q.d., week 4",1.53 mmol/L
same,[HDL] % Mean % variation vs baseline after 4 weeks,RA patients; 150 mg qd,4%
same,[HDL] levels,"RA patients; 300 mg q.d., Baseline",1.36 mmol/L
same,[HDL] levels,"RA patients; 300 mg q.d., week 1",1.55 mmol/L
same,[HDL] levels,"RA patients; 300 mg q.d., week 2",1.73 mmol/L
same,[HDL] levels,"RA patients; 300 mg q.d., week 3",1.75 mmol/L
same,[HDL] levels,"RA patients; 300 mg q.d., week 4",1.84 mmol/L
same,[HDL] % Mean % variation vs baseline after 4 weeks,RA patients; 300 mg qd,38%
